According to the kinase profiling compilation of Christmann-Franck et al. (2016):

Legend:
Test in all cases: radiometric filter-binding kinase assay
STK16 (human) = STK16 (human) (UniProt O75716)
PTK6 (human) = PTK6 (human) (UniProt Q13882)
TEK (human) = TEK (human) (UniProt Q02763)
IRAK1 (human) = IRAK1 (human) (UniProt P51617)
[1] = tested on: OXSR1 (human), O95747 [T185E]
STK33 (human) = STK33 (human) (UniProt Q9BYT3)
PRKCG (human) = PRKCG (human) (UniProt P05129)
ZAP70 (human) = ZAP70 (human) (UniProt P43403)
Sequence of ZAP70 (human) (P43403 whole entry, looked up): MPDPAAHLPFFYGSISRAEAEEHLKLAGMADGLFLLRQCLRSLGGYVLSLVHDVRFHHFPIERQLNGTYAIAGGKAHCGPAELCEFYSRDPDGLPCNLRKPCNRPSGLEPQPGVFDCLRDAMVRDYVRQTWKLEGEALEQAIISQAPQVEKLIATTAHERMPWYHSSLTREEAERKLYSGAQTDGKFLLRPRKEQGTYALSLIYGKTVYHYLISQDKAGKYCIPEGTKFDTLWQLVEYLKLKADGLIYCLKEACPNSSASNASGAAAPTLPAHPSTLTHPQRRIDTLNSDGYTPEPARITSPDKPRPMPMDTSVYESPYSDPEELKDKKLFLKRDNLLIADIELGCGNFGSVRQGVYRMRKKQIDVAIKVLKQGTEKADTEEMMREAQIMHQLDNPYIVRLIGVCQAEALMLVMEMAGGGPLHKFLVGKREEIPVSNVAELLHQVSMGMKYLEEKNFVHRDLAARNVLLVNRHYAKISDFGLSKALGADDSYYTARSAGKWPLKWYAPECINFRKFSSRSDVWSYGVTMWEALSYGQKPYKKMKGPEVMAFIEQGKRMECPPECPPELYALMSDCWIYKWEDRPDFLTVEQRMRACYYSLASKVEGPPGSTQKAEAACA

MAPKAPK3 (human) = MAPKAPK3 (human) (UniProt Q16644)
Sequence of MAPKAPK3 (human) (Q16644 whole entry, looked up): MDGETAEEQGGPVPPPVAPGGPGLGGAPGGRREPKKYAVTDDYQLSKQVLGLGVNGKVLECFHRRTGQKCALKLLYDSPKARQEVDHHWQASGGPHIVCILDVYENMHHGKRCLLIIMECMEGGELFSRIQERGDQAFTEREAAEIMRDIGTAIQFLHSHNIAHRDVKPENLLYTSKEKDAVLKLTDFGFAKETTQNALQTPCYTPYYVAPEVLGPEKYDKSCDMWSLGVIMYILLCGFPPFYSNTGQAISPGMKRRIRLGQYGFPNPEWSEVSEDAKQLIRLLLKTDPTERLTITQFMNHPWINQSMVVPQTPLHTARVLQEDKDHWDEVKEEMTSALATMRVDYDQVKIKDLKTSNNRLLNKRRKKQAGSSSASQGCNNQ

TLK1 (human) = TLK1 (human) (UniProt Q9UKI8)
Sequence of TLK1 (human) (Q9UKI8 whole entry, looked up): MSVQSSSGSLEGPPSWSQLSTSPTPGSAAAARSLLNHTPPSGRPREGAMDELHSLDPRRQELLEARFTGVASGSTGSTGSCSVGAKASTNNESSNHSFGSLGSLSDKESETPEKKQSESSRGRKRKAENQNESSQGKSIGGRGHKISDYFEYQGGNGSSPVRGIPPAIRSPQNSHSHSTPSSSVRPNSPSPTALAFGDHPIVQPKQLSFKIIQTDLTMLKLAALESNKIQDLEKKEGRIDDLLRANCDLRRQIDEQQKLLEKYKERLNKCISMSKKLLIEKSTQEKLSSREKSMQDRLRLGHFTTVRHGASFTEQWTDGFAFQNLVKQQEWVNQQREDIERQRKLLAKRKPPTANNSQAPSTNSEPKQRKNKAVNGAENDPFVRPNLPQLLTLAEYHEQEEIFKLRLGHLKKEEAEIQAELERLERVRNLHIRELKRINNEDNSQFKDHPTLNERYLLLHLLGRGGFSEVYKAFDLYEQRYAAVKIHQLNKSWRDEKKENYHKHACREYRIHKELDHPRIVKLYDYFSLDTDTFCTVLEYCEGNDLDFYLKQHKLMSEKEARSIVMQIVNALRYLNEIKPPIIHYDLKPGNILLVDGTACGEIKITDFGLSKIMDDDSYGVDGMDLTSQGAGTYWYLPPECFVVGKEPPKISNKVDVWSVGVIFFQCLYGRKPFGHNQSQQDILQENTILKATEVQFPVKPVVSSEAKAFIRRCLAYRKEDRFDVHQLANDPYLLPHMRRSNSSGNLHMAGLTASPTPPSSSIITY

EIF2AK3 (human) = EIF2AK3 (human) (UniProt Q9NZJ5)
ABL1 (human) = ABL1 (human) (UniProt P00519)
Sequence of ABL1 (human) (P00519 whole entry, looked up): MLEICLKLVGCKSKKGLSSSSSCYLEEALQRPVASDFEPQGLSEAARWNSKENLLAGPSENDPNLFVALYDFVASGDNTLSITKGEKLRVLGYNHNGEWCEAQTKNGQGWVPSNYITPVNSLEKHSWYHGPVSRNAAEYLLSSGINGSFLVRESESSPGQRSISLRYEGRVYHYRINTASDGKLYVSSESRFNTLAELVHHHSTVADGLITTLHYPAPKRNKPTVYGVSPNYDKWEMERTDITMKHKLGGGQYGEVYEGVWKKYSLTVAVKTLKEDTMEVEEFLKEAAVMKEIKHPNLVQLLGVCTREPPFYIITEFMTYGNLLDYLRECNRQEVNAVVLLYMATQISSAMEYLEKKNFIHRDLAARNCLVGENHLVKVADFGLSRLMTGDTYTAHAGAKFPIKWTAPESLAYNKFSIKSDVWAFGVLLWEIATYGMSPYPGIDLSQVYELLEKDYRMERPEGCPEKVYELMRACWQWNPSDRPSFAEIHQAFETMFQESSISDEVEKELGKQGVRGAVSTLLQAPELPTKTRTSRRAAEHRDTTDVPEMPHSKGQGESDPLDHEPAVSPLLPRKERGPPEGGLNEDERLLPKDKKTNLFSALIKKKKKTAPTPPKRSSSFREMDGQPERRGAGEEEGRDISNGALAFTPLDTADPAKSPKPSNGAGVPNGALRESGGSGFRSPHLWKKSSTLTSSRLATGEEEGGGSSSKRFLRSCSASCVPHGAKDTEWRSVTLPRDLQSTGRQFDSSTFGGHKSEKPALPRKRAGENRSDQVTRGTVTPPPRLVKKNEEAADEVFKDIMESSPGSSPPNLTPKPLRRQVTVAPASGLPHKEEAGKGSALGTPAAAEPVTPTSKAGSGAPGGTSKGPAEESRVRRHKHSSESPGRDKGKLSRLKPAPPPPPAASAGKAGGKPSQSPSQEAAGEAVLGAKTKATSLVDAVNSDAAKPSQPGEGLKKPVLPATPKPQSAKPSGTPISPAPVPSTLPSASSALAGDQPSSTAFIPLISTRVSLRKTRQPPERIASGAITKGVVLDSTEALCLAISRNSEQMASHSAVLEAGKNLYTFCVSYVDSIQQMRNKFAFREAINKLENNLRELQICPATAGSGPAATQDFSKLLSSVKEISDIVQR

PRKAA1 or PRKAA2 (rat) = conditions: accession and sequence are those of the human protein

Sequence of STK33 (human) (Q9BYT3 whole entry, looked up): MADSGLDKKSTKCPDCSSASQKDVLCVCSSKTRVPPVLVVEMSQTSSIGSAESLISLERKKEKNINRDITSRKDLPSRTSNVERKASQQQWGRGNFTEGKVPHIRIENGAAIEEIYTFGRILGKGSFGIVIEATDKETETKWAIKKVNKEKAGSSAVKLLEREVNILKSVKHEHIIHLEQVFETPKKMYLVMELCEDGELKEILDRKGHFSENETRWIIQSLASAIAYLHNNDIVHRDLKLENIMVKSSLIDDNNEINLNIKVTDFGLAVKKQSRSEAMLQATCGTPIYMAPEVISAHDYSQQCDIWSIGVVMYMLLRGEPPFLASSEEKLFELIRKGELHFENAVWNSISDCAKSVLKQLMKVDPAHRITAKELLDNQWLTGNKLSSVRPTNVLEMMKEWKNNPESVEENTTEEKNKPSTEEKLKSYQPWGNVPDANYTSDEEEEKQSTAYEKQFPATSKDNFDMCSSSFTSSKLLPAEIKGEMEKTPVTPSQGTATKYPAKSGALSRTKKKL
Sequence of IRAK1 (human) (P51617 whole entry, looked up): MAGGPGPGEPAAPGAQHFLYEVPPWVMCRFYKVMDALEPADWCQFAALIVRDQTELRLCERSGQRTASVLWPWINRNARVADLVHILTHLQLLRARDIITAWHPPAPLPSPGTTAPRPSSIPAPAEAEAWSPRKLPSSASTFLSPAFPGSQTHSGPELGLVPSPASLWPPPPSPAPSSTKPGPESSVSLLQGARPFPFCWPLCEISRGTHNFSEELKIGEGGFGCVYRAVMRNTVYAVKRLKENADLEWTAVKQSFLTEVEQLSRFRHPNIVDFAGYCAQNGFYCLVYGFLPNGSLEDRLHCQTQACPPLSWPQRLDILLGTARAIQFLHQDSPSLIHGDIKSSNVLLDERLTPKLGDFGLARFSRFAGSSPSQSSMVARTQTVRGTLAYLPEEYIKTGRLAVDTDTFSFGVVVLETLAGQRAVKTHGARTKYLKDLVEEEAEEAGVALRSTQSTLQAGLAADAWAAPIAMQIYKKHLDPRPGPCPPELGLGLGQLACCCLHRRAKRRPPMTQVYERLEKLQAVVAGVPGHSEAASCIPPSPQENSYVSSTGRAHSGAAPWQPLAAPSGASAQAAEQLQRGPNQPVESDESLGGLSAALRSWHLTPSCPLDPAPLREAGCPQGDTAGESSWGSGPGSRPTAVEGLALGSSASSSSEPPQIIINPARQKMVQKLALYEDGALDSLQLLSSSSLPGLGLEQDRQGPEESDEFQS

Row | Compound | residual activity (STK16 (human); compound 1.0 µM) [%] | residual activity (PTK6 (human); compound 1.0 µM) [%] | residual activity (TEK (human); compound 1.0 µM) [%] | residual activity (IRAK1 (human); compound 1.0 µM) [%] | residual activity (STK33 (human); compound 1.0 µM) [%] | residual activity (PRKCG (human); compound 1.0 µM) [%] | residual activity (ZAP70 (human); compound 1.0 µM) [%] | residual activity (MAPKAPK3 (human); compound 1.0 µM) [%] | residual activity (TLK1 (human); compound 1.0 µM) [%] | residual activity (PTK6 (human); compound 10.0 µM) [%] | residual activity (TEK (human); compound 10.0 µM) [%] | residual activity (IRAK1 (human); compound 10.0 µM) [%] | residual activity (ABL1 (human); compound 10.0 µM) [%] | residual activity ([1]; compound 10.0 µM) [%] | residual activity (STK33 (human); compound 10.0 µM) [%] | residual activity (PRKCG (human); compound 10.0 µM) [%] | residual activity (ZAP70 (human); compound 10.0 µM) [%] | residual activity (MAPKAPK3 (human); compound 10.0 µM) [%] | residual activity (TLK1 (human); compound 10.0 µM) [%] | residual activity (PRKAA1 or PRKAA2 (rat); compound 10.0 µM) [%] | further results
1 | O=C(NCCCNc1nc(Nc2cccc(CN3CCOCC3)c2)ncc1C1CC1)C1CCC1 | 104 | 110 | 81 | 79 | 52 | 98 | 94 | 104 | 108 |  |  |  |  |  |  |  |  |  |  |  | residual activity (PTK6 (human); compound 0.1 µM): 96%; residual activity (TEK (human); compound 0.1 µM): 95%; residual activity (IRAK1 (human); compound 0.1 µM): 96%; residual activity ([1]; compound 0.1 µM): 83%; residual activity ([1]; compound 1.0 µM): 94%; residual activity (STK33 (human); compound 0.1 µM): 80%; residual activity (PRKCG (human); compound 0.1 µM): 88%; residual activity (ZAP70 (human); compound 0.1 µM): 92%; residual activity (MAPKAPK3 (human); compound 0.1 µM): 80%; residual activity (TLK1 (human); compound 0.1 µM): 90%; residual activity (EIF2AK3 (human); compound 0.1 µM): 92%; residual activity (EIF2AK3 (human); compound 1.0 µM): 86%
2 | CCOC(=O)c1ccc(N2NC(=O)/C(=C/c3ccc([N+](=O)[O-])o3)C2=O)cc1 |  |  |  |  |  |  |  |  |  | 79 | 128 | 84 | 107 | 115 | 119 | 99 | 95 | 41 | 108 | 108 | residual activity (EIF2AK3 (human); compound 10.0 µM): 83%
3 | Cc1nc(-c2ccc(OCC(C)C)c(C#N)c2)sc1C(=O)O | 46 | 99 | 78 | 106 | 101 | 81 | 104 | 102 | 86 |  | 67 | 102 | 89 | 80 | 89 | 85 |  | 95 | 94 | 83 | residual activity (STK16 (human); compound 10.0 µM): 47%; residual activity (ABL1 (human); compound 1.0 µM): 96%; residual activity ([1]; compound 1.0 µM): 96%; residual activity (EIF2AK3 (human); compound 1.0 µM): 94%; residual activity (EIF2AK3 (human); compound 10.0 µM): 88%; residual activity (PRKAA1 or PRKAA2 (rat); compound 1.0 µM): 92%
4 | CCCCCc1ccc(/C=C/[C@H](O)[C@@H](CO)NC)cc1 | 98 | 93 | 118 |  | 100 | 109 | 106 | 119 |  | 104 | 113 |  | 109 |  | 89 | 96 | 92 | 123 |  | 94 | residual activity (STK16 (human); compound 0.1 µM): 104%; residual activity (STK16 (human); compound 10.0 µM): 100%; residual activity (PTK6 (human); compound 0.1 µM): 104%; residual activity (TEK (human); compound 0.1 µM): 141%; residual activity (ABL1 (human); compound 0.1 µM): 110%; residual activity (ABL1 (human); compound 1.0 µM): 106%; residual activity (STK33 (human); compound 0.1 µM): 100%; residual activity (PRKCG (human); compound 0.1 µM): 101%; residual activity (ZAP70 (human); compound 0.1 µM): 116%; residual activity (MAPKAPK3 (human); compound 0.1 µM): 115%; residual activity (PRKAA1 or PRKAA2 (rat); compound 0.1 µM): 104%; residual activity (PRKAA1 or PRKAA2 (rat); compound 1.0 µM): 96%
5 | O=C(NOCC(O)CO)c1ccc(F)c(F)c1Nc1ccc(I)cc1Cl (configuration not stated) | 87 | 126 | 106 | 81 | 92 | 110 | 77 | 94 | 95 | 110 | 87 | 79 | 107 | 87 | 90 | 100 | 98 | 77 | 100 | 120 | residual activity (STK16 (human); compound 10.0 µM): 86%; residual activity (ABL1 (human); compound 1.0 µM): 101%; residual activity (PRKAA1 or PRKAA2 (rat); compound 1.0 µM): 111%
